# Experimental data taken from patent US12357701B2, “Anti-HER2 biparatopic antibody-drug conjugates and methods of use” (Zymeworks BC Inc., priority 2018, dated 2025).
# What was measured:
# Assay type in all cases: in vivo, cynomolgus monkeys
# [1] = GLP toxicity study of v21252
# Description: (§1) All animals were evaluated for changes in clinical signs, food consumption, body weight, blood pressure, ECGs, respiration rates (visual), clinical pathology (hematology, clinical chemistry, coagulation, urinalysis), organ weights, and macroscopic/microscopic examination of tissues.
# [2] = Non-GLP repeat-dose toxicity study of v21252; settings: after repeat administration of v21252 9 or 12 mg/kg; all below limit of quantitation except three animals
# Description: as §1
# [3] = Single-dose pharmacokinetics/tolerability study of v17597 and v21252; settings: all below LLOQ
# Description: General tolerability was assessed with clinical observations, body weight, food consumption, and clinical pathology (hematology and clinical chemistry).
# Serum concentrations of total antibody were analyzed using an Electrochemiluminescence assay with Meso Scale Discovery platform (ECL/MSD) with anti-pertuzumab antibody as the capture agent and anti-trastuzumab sulfo-TAG as the detection agent.
# Serum samples were precipitated with acetonitrile/methanol (50:50, v/v) and supernatants were analyzed. The liquid chromatography system used was a reverse phase column with a gradient flow consisting of water/acetic acid (100/0.05, v/v) and acetonitrile.
# Non-compartmental analysis of the serum sample bioanalytical results was used to derive PK parameters (maximum serum concentration [Cmax], terminal half-life [T1/2], clearance [CL] and apparent volume of distribution [Vss]).
compound,measurement,setting,value
"CCC(C)[C@@H]([C@@H](CC(=O)N1CCC[C@H]1[C@H](OC)[C@@H](C)C(=O)NS(=O)(=O)c1ccc(N)cc1)OC)N(C)C(=O)[C@@H](NC(=O)[C@H](C(C)C)N(C)C)C(C)C (stereo in doubt) [Compound 9, (S)—N-((3R,4S,5R)-1-((S)-2-((1R,2R)-3-((4-aminophenyl)sulfonamido)-1-methoxy-2-methyl-3-oxopropyl)pyrrolidin-1-yl)-3-methoxy-5-methyl-1-oxoheptan-4-yl)-2-((S)-2-(dimethylamino)-3-methylbutanamido)-N,3-dimethylbutanamide]",toxin (Compound 9) serum concentration,"[1]; after repeat administrations of v21252, most concentrations below limit of quantitation",< 0.500 ng/mL
same,AUC(0-t),"[1]; male, cynomolgus monkey, serum, iv, 18 mg/kg",125 ng·h/mL
same,payload (Compound 9) serum concentration,[2],< 0.500 ng/mL
same,toxin (Compound 9) serum concentration,"[3]; after single dose of v17597 (3, 6 or 9 mg/kg)",< 5.00 ng/mL
same,toxin (Compound 9) serum concentration,[3]; after single dose of v21252 (9 or 12 mg/kg),< 5.00 ng/mL
